Values of other authors in patent US6362007B1, “Methylated, SMD homologous peptides, reactive with the antibodies from sera of living beings affected with systemic lupus erythematosus” (Innogenetics N.V., priority 1997, dated 2002).

System: antibodies in SmD positive sera
Conditions: James et al. 1994; synthetic octapeptides of SmD1

Row | Substance | SmD positive sera (precipitin positive) reactive
1 | amino acid 82-90: additional SmD1 epitope in the region of amino acid 82-90 (James et al. 1994) (DVEPKVKSK; UniProt P62314 82-90, looked up, fragment) | 7 of 9
2 | octapeptides 92-112: SmD1 sequence spanning synthetic octapeptides 92-112 (James et al. 1994) (REAVAGRGRGRGRGRGRGRGR; UniProt P62314 92-112, looked up, fragment) | 8 of 9
